Converted amounts (≈) assume the structure as drawn. “Also recorded” adds a separate entry of the source. Where two headings read alike, the source gives them in different places. Blank lines part the entries; values can stand above or below the compound they belong to.
Experiments:
Format in all cases: physicochemical
[1] = Desolvation of ethyl acetate solvate crystal forms upon drying and heating; settings: drying and heating above about 30° C.
Protocol: For example, Examples 4A and 4B teach methods of producing crystalline (R)-amisulpride ethyl acetate solvate of Form B. The product of these examples upon drying above about 30° C., desolvates and converts to crystals of crystalline (R)-amisulpride free base of Form A and amorphous. Similarly, for example, Example 7 teaches a method producing crystalline (S)-amisulpride ethyl acetate solvate of Form B′. The product of these examples upon drying above about 30° C., desolvates and converts to crystals of crystalline (S)-amisulpride free base of Form A′ and amorphous. Although the fraction of the solvate that converts to Form A or Form A′ in the above examples is low, it is sufficient for obtaining seed crystals.
In various preferred embodiments, crystals of enantiomeric amisulpride ethyl acetate solvate are isolated by cooling the reaction mixture to below about 10° C., and preferably to about −10° C., until a slurry is formed. The slurry is slowly warmed and agitated for at least 1 hour at a temperature less than about 10° C., then filtered and washed with ethyl acetate at room temperature, and the resultant residue allowed to dry to isolate the desired crystalline enantiomeric amisulpride ethyl acetate solvate having a powder x-ray crystal pattern comprising peaks, in terms of 2-theta, at least at 6.4±0.2°, 8.3±0.2°, and 20.8±0.2°.

[2] = Solubility (mg/mL) in water, buffers, simulated fluids and organic solvents (Table 1)
[3] = DVS water sorption isotherm, 25° C. scanned over 0 to 95% relative humidity (hygroscopicity); settings: DVS, 25° C., 0 to 95% relative humidity
From the text: In various embodiments, the hygroscopicity of crystal forms of racemic amisulpride, enantiomeric amisulpride, and enantiomeric amisulpride solvates are characterized by dynamic vapor sorption (DVS). DVS is a gravimetric technique that measures how much of a solvent is absorbed by a sample by varying the vapor concentration surrounding the sample (e.g., relative humidity) and measuring the change in mass. In the present application, DVS is used to generate water sorption isotherms, which represent the equilibrium amount of vapor sorbed as a function of steady state relative vapor pressure at a constant temperature.

Compound: CCN1CCC[C@@H]1CNC(=O)c1cc(S(=O)(=O)CC)c(N)cc1OC.CCOC(C)=O [Form B, (R)-4-Amino-N-[(1-ethyl-2-pyrrolidinyl)methyl]-5-(ethylsulfonyl)-2-methoxybenzamide ethyl acetate solvate]
desolvation of ethyl acetate solvate form [1]: desolvate upon drying and heating about 30 °C to convert to Form A; also recorded: desolvate to Form A and amorphous

Compound: CCN1CCC[C@H]1CNC(=O)c1cc(S(=O)(=O)CC)c(N)cc1OC.CCOC(C)=O [Form B′, S-4-Amino-N-[(1-ethyl-2-pyrrolidinyl)methyl]-5-(ethylsulfonyl)-2-methoxybenzamide ethyl acetate solvate]
desolvation of ethyl acetate solvate form [1]: desolvate upon drying and heating about 30 °C; also recorded: desolvate to Form A′ and amorphous

solubility ([2]; acetone/MtBE 1:4, organic solvent or mixture, read-out: Solubility (mg/mL): Acetone/MtBE 1:4): 0.4 mg/mL (≈ 1080 µM)
solubility ([2]; acetone/MtBE 1:9, organic solvent or mixture, read-out: Solubility (mg/mL): Acetone/MtBE 1:9): 0.2 mg/mL (≈ 541 µM)
solubility ([2]; ethyl acetate, organic solvent or mixture, read-out: Solubility (mg/mL): Ethyl Acetate): 0.5 mg/mL (≈ 1350 µM)
solubility ([2]; water, solution pH 10.2 (Form A), 10.3 (Form A′), read-out: Solubility (mg/mL): Water): < 1 mg/mL
Compound: CCN1CCCC1CNC(=O)c1cc(S(=O)(=O)CC)c(N)cc1OC (racemic) [crystalline racemic amisulpride, 4-amino-N-[(1-ethylpyrrolidin-2-yl)methyl]-5-ethylsulfonyl-2-methoxy-benzamide, reference compound]

hygroscopicity [3]: highly hygroscopic
maximum mass change in water sorption isotherms (n=4, σ=18.25) ([3]; n=4): 52±9%
Compound: CCN1CCC[C@H]1CNC(=O)c1cc(S(=O)(=O)CC)c(N)cc1OC.O=C(O)C(O)C(O)C(=O)O [(S)-amisulpride D-tartrate, S-(−)-4-Amino-N-[(1-ethyl-2-pyrrolidinyl)methyl]-5-(ethylsulfonyl)-2-methoxybenzamide D-tartrate, reference compound]

— patent publication US10577317B2, “Crystal forms and production methods thereof” (Sunovion Pharmaceuticals Inc., priority 2017, dated 2020)
